Assay results reported in patent US10005792B2, “Aminoindane-, aminotetrahydronaphthalene- and aminobenzocyclobutane-derived PRMT5-inhibitors” (CTXT PTY LTD, priority 2014, dated 2018).
Counter-ions that a name gives are not always drawn.

Biological target: Full-length PRMT5 enzyme co-expressed with MEP50 (Homo sapiens (Human), UniProt O14744)
Experiment: Revised PRMT5 Biochemical Assay
Conditions: 1 μM histone H4 derived peptide substrate, 1 μM S-Adenosyl methionine, 4 hours at 37 degree Celsius, Transcreener EPIGEN fluorescence polarisation
Description: Compounds of the invention may be tested for in vitro activity in the following assay: A histone H4 derived peptide is used as substrate (amino acid sequence: […]NH2). Full-length PRMT5 enzyme (NCBI Reference sequence NP-006100.2) was co-expressed with Hiss-MEP50 in insect cells and purified via Nickel immobilized metal affinity and gel filtration chromatography (“the enzyme”).
The 6 μL reactions are run in Greiner brand black 384-well low volume assay plates. All reactions contained assay buffer (phosphate buffered saline, 0.01% (v/v) Tween-20, 0.01% (w/v) albumin from chicken egg white, 1 mM Dithiothreitol, 1 μM peptide substrate, 1 μM S-Adenosyl methionine, and 15 ng/reaction enzyme, with the enzyme being omitted from negative control reactions. Compounds were added in a volume of 100 nL from dilution series prepared in DMSO, positive and negative control reactions receiving the same volume DMSO without compound. The plates were sealed with adhesive seals and incubated for 4 hours at 37 degree Celsius. Reaction progress was measured using the Transcreener™ EPIGEN methyltransferase assay (BellBrook Labs, Madison, Wis.) as recommended by the manufacturer. To each reaction 2 μL detection mix were added, containing coupling enzymes, fluorescence polarisation tracer, and AMP antibody. Plates were incubated for 90 minutes before being read on a PerkinElmer EnVision™ plate reader in fluorescence polarisation mode. IC50 values were obtained from the raw readings by calculating percent inhibition (% I) for each reaction relative to controls on the same plate (% I=(I−CN)/(CP−CN) where CN/CP are the averages of the negative/positive reactions, respectively), then fitting the % I data vs. compound concentration [I] to % I=([…]) where A is the lower asymptote, B is the upper asymptote, C is the IC50 value, and D is the slope.

Sequence of Full-length PRMT5 enzyme co-expressed with MEP50 (O14744 whole entry): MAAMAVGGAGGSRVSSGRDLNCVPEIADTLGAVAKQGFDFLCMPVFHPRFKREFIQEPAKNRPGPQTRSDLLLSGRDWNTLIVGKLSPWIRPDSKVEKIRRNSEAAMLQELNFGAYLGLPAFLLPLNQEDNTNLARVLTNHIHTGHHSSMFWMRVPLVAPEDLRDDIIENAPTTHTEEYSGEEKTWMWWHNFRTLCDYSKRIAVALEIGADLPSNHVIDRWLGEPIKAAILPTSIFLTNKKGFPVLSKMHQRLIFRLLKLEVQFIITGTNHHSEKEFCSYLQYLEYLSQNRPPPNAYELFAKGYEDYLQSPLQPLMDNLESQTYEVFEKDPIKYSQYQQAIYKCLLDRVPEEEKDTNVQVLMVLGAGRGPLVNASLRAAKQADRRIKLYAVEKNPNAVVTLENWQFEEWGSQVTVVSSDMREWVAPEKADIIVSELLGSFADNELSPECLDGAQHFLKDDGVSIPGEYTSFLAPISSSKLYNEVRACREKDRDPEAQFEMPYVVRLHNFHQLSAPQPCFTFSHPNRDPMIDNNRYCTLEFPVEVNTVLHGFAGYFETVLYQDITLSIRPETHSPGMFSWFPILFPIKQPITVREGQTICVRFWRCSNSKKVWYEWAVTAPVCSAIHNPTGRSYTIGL
Sequence of Full-length PRMT5 enzyme co-expressed with MEP50 (Q9BQA1 whole entry partner): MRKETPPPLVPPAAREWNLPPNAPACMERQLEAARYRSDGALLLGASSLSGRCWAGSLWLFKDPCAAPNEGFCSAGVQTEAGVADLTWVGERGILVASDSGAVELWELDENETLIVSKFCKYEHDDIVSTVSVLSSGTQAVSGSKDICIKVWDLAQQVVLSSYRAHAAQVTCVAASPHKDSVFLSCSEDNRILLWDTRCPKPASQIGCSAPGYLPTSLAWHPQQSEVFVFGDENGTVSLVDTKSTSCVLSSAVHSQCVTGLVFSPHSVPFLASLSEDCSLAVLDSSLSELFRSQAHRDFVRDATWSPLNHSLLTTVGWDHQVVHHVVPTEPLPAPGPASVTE

IC50 [nM] | Structure (SMILES)
1810 | O=C(NCC(O)CNC1Cc2ccccc2C1)c1ccn(Cc2ccccc2)c(=O)c1 (racemic) [Compound 82, 1-benzyl-N-(3-((2,3-dihydro-1H-inden-2-yl)amino)-2-hydroxypropyl)-2-oxo-1,2-dihydropyridine-4-carboxamide]
237 | CC[C@@H]1COCCN1C(=O)c1ccc(C(=O)NC[C@@H](O)CNC2Cc3ccccc3C2)cc1 [Compound 71, N-((S)-3-((2,3-dihydro-1H-inden-2-yl)amino)-2-hydroxypropyl)-4-((R)-3-ethylmorpholine-4-carbonyl)benzamide]
74600 | CC(=O)N1CCC(Nc2cncc(C(=O)NCC(O)CNC3Cc4ccccc4C3)n2)CC1 (stereo not shown) [Compound 52, 6-((1-Acetylpiperidin-4-yl)amino)-N-(3-((2,3-dihydro-1H-inden-2-yl)amino)-2-hydroxypropyl)pyrazine-2-carboxamide]
3130 | CC(C)Oc1ccccc1C(=O)NCC(O)CNC1Cc2ccccc2C1 (racemic) [Compound 74, N-(3-((2,3-dihydro-1H-inden-2-yl)amino)-2-hydroxypropyl)-2-isopropoxybenzamide]
15400 | O=C(NC[C@@H](O)CNC1Cc2ccccc2C1)c1cccc2[nH]ncc12 [Compound 128, (S)-N-(3-((2,3-dihydro-1H-inden-2-yl)amino)-2-hydroxypropyl)-1H-indazole-4-carboxamide]
7680 | Cn1ccc(C(=O)NCC(O)CNC2Cc3ccccc3C2)cc1=O (racemic) [Compound 85, N-(3-((2,3-dihydro-1H-inden-2-yl)amino)-2-hydroxypropyl)-1-methyl 2-oxo-1,2-dihydropyridine-4-carboxamide]
883 | CC(=O)N1CC(Nc2cc(C(=O)NCC(O)CNC3Cc4ccccc4C3)ncn2)C1 (stereo not shown) [Compound 58, 6-((1-Acetylazetidin-3-yl)amino)-N-(3-((2,3-dihydro-1H-inden-2-yl)amino)-2-hydroxypropyl)pyrimidine-4-carboxamide 2,2,2-trifluoroacetic acid salt]
1130 | CCOc1c(C(=O)NC[C@@H](O)CNC2Cc3ccccc3C2)ccc(C(=O)N2CCOCC2)c1C [Compound 130, (S)-N-(3-((2,3-dihydro-1H-inden-2-yl)amino)-2-hydroxypropyl)-2-ethoxy-3-methyl-4-(morpholine-4-carbonyl)benzamide]
4680 | CS(=O)(=O)Nc1cccc(C(=O)NC[C@@H](O)CNC2Cc3ccccc3C2)c1 [Compound 140, (S)—N-(3-((2,3-Dihydro-1H-inden-2-yl)amino)-2-hydroxypropyl)-3-(methylsulfonamido) benzamide]
1370 | COC1CCN(C(=O)c2ccc(C(=O)NC[C@@H](O)CNC3Cc4ccccc4C3)cc2)C1 (stereo partly drawn) [Compound 81, N-((S)-3-((2,3-dihydro-1H-inden-2-yl)amino)-2-hydroxypropyl)-4-(3-methoxypyrrolidine-1-carbonyl)benzamide]
3150 | O=C(NC[C@@H](O)CNC1Cc2ccccc2C1)c1ccc(CC(=O)N2CCOCC2)cc1 [Compound 90, (S)-N-(3-((2,3-dihydro-1H-inden-2-yl)amino)-2-hydroxypropyl)-4-(2-morpholino-2-oxoethyl)benzamide]
166 | CCOc1cc(C(=O)N2CCOCC2)c(C)cc1C(=O)NC[C@@H](O)CNC1Cc2ccccc2C1 [Compound 122, (S)-N-(3-((2,3-dihydro-1H-inden-2-yl)amino)-2-hydroxypropyl)-2-ethoxy-5-methyl-4-(morpholine-4-carbonyl)benzamide]
12800 | O=C(NCC(O)CNC1Cc2ccccc2C1)c1cc(-c2ccccn2)[nH]n1 (stereo not shown) [Compound 45, N-(3-((2,3-dihydro-1H-inden-2-yl)amino)-2-hydroxypropyl)-5-(pyridin-2-yl)-1H-pyrazole-3-carboxamide]
5770 | CC(=O)N1CCC(Nc2nccc(C(=O)NCC(O)CNC3Cc4ccccc4C3)n2)CC1 (stereo not shown) [Compound 54, 2-((1-Acetylpiperidin-4-yl)amino)-N-(3-((2,3-dihydro-1H-inden-2-yl)amino)-2-hydroxypropyl)pyrimidine-4-carboxamide]
1560 | O=C(NC[C@@H](O)CNC1Cc2ccccc2C1)c1ccc(C(=O)N2CC3(COC3)C2)cc1 [Compound 66, (S)-N-(3-((2,3-dihydro-1H-inden-2-yl)amino)-2-hydroxypropyl)-4-(2-oxa-6-azaspiro[3.3]heptane-6-carbonyl)benzamide]
253 | COCC1CCCCN1C(=O)c1ccc(C(=O)NC[C@@H](O)CNC2Cc3ccccc3C2)cc1 (stereo partly drawn) [Compound 80, N-((S)-3-((2,3-dihydro-1H-inden-2-yl)amino)-2-hydroxypropyl)-4-(2-(methoxymethyl)piperidine-1-carbonyl)benzamide]
931 | CC(=O)N1CCc2cc(C(=O)NCC(O)CNC3Cc4ccccc4C3)ccc2C1 (racemic) [Compound 95, 2-acetyl-N-(3-((2,3-dihydro-1H-inden-2-yl)amino)-2-hydroxypropyl)-1,2,3,4-tetrahydroisoquinoline-6-carboxamide]
6920 | O=C(NC[C@@H](O)CNC1Cc2ccccc2C1)c1cccc(C(=O)N2CCOCC2)c1 [Compound 62, (S)-N-(3-((2,3-dihydro-1H-inden-2-yl)amino)-2-hydroxypropyl)-3-(morpholine-4-carbonyl)benzamide]
4380 | CCCOc1ccccc1C(=O)NCC(O)CNC1Cc2ccccc2C1 (racemic) [Compound 73, N-(3-((2,3-dihydro-1H-inden-2-yl)amino)-2-hydroxypropyl)-2-propoxybenzamide]
7300 | O=C(NCC(O)CNC1Cc2ccccc2C1)c1ccc(N2CCCCC2=O)cc1 (stereo not shown) [Compound 63, N-(3-((2,3-Dihydro-1H-inden-2-yl)amino)-2-hydroxypropyl)-4-(2-oxopiperidin-1-yl)benzamide]
341 | CC1(C)CN(C(=O)c2ccc(C(=O)NC[C@@H](O)CNC3Cc4ccccc4C3)cc2)CCO1 [Compound 72, (S)-N-(3-((2,3-dihydro-1H-inden-2-yl)amino)-2-hydroxypropyl)-4-(2,2-dimethylmorpholine-4-carbonyl)benzamide]

Structure (SMILES) | IC50 [nM]
CS(=O)(=O)N1CC(Nc2cc(C(=O)NC[C@@H](O)CNC3Cc4ccccc4C3)ccn2)C1 [Compound 109, (S)—N-(3-((2,3-Dihydro-1H-inden-2-yl)amino)-2-hydroxypropyl)-2-((1-(methylsulfonyl)azetidin-3-yl)amino)isonicotinamide bis 2,2,2-trifluoroacetic acid salt] | 11100
CCOc1cc(CC(=O)N2C3CCC2COC3)ccc1C(=O)NC[C@@H](O)CNC1Cc2ccccc2C1 [Compound 129, 4-(2-(3-oxa-8-azabicyclo[3.2.1]octan-8-yl)-2-oxoethyl)-N-((S)-3-((2,3-dihydro-1H-inden-2-yl)amino)-2-hydroxypropyl)-2-ethoxybenzamide] | 629
O=C(NC[C@@H](O)CNC1Cc2ccccc2C1)c1ccc(C(=O)N2[C@@H]3CCC[C@H]2COC3)cc1 [Compound 136, 4-((1R,5S)-3-Oxa-9-azabicyclo[3.3.1]nonane-9-carbonyl)-N—((S)-3-((2,3-dihydro-1H-inden-2-yl)amino)-2-hydroxypropyl)benzamide] | 50
CCOc1nc(C(=O)N2C3CCC2COC3)ccc1C(=O)NC[C@@H](O)CNC1Cc2ccccc2C1 [Compound 115, 6-(3-oxa-8-azabicyclo[3.2.1]octane-8-carbonyl)-N-((S)-3-((2,3-dihydro-1H-inden-2-yl)amino)-2-hydroxypropyl)-2-ethoxynicotinamide] | 305
